Assay [1] deals with Staphylococcus aureus (ATCC 29213). The format is cell-based. The method, then:
(§1) Antimicrobial and Hemolytic Assays. Antimicrobial susceptibility testing against Staphylococcus aureus (ATCC 29213), Escherichia coli (ATCC 25922), and Pseudomonas aeruginosa (ATCC 27853) was performed using a modification of the National Committee for Clinical Laboratory Standards microdilution broth assay (22). Mueller-Hinton broth (BBL) was used for diluting the peptide stock solution and for diluting the bacterial inoculum. The inoculum was prepared from mid-logarithmic phase cultures. […] The final concentration of peptide solution ranged-from 0.25 to 256 μg/mL in two-fold dilutions. The final concentration of bacteria in the wells was 5×10^5 CFU/mL. Peptides were tested in duplicate. In addition to the test peptide, three standard peptides and a non-treated growth control were included to validate the assay. The microtiter plates were incubated overnight at 37° C. and the absorbance was measured at 600 nm. […] After incubation at 37° C. for 30 min, the suspension was centrifuged at 10,000×g for 10 min and the absorbance at 400 nm was measured.

Assay [2] relates to Escherichia coli (ATCC 25922). The format is cell-based. The method, then: as §1
Assay [3] deals with Pseudomonas aeruginosa (ATCC 27853). The format is cell-based. As to the method:
as §1

Assay [4] deals with E. coli, S. aureus, and P. aeruginosa. In kind it is cell-based. The method, then: Antimicrobial and Hemolytic Assays. Antimicrobial susceptibility testing against Staphylococcus aureus (ATCC 29213), Escherichia coli (ATCC 25922), and Pseudomonas aeruginosa (ATCC 27853) was performed using a modification of the National Committee for Clinical Laboratory Standards microdilution broth assay (22). Mueller-Hinton broth (BBL) was used for diluting the peptide stock solution and for diluting the bacterial inoculum. The inoculum was prepared from mid-logarithmic phase cultures. Microtiter plate wells received aliquots-of 100 μL each of the inoculum and peptide dilution. The final concentration of peptide solution ranged-from 0.25 to 256 μg/mL in two-fold dilutions. The final concentration of bacteria in the wells was 5×10^5 CFU/mL. Peptides were tested in duplicate. In addition to the test peptide, three standard peptides and a non-treated growth control were included to validate the assay. The microtiter plates were incubated overnight at 37° C. and the absorbance was measured at 600 nm. […] Hemolysis at peptide concentrations of 500 μg/mL was determined using a 5% suspension of freshly drawn human erythrocytes, which had been washed twice in phosphate buffered saline. After incubation at 37° C. for 30 min, the suspension was centrifuged at 10,000×g for 10 min and the absorbance at 400 nm was measured. Complete hemolysis was determined by adding 0.2% Triton X-100 in place of the peptide.

Assay [5] in a line: Peptide-induced leakage from calcein-loaded LUV. As to the method:
Peptide-Induced Leakage from Calcein-Loaded LUV. The ability of the peptides to release calcein (MW 623) from LUV of varying lipid composition was compared. LUV were prepared as above, except that-the buffer consisted of 50 mM HEPES, 100 mM NaCl, 0.3 mM EDTA, 80 mM calcein, pH 7.4. Calcein-loaded vesicles were separated from free calcein by size-exclusion chromatography using a Sephadex G-50 column and calcein-free buffer. Calcein leakage was monitored using a Perkin-Elmer LS-500 luminescence spectrometer by measuring the time-dependent increase in fluorescence of calcein (excitation=490 nm, emission=520 nm). LUV containing 8 nmoles of lipid were added to 1.5 mL of buffer in a stirred cuvet at 25° C. An aliquot of peptide was added to achieve the desired lipid-to-peptide ratio (256 to 8). Complete leakage was determined by the addition of 20 μL of 10% Triton X-100. Each value represents at least nine different measurements using at least three different LUV preparations.

Converted amounts (≈) assume the structure as drawn. Read-outs that look alike come from different tables or passages of the source. Where a SMILES comes first, the peptide text is derived from it. Where no end group is shown, it is not given here. The star is where a group is joined. Octanoyl = CCCCCCCC(=O)*

Regarding `CC(C)C[C@H](NC(=O)CNC(=O)[C@H](C)NC(=O)[C@H](CC(C)C)NC(=O)[C@H](CCCCN)NC(=O)[C@H](CCCCN)NC(=O)[C@H](C)NC(=O)[C@H](CC(C)C)NC(=O)CNC(=O)[C@H](C)NC(=O)[C@H](Cc1c[nH]c2ccccc12)NC(=O)[C@H](CCCCN)NC(=O)[C@H](CCCCN)NC(=O)[C@H](C)NC(=O)[C@H](CC(C)C)NC(=O)CNC(=O)[C@H](C)NC(=O)[C@H](CC(C)C)NC(=O)[C@H](CCCCN)NC(=O)[C@@H](N)CCCCN)C(=O)N[C@@H](C)C(N)=O` [1,2-Hept, KKLAGLAKKWAGLAKKLAGLA-NH2] (H-KKLAGLAKKWAGLAKKLAGLA-NH2; N-terminus assumed), the “MIC Staph. aureus” value in assay [1] (ATCC 29213) is 16 µg/mL (≈ 7.49 µM). Besides, in assay [2] (ATCC 25922), the “MIC E. coli” value worked out at 8 µg/mL (≈ 3.75 µM). Moreover, the “MIC Pseud. aerug” value in assay [3] (ATCC 27853) was 16 µg/mL (≈ 7.49 µM). In addition, the “antimicrobial activity (in words)” value in assay [4] is reported as “relatively low MIC values”.
With `CC[C@H](C)[C@H](NC(=O)[C@H](C)NC(=O)CNC(=O)[C@@H](NC(=O)[C@H](CCCCN)NC(=O)[C@H](CCCCN)NC(=O)[C@@H](NC(=O)[C@H](C)NC(=O)CNC(=O)[C@H](Cc1c[nH]c2ccccc12)NC(=O)[C@H](CCCCN)NC(=O)[C@H](CCCCN)NC(=O)[C@@H](NC(=O)[C@H](C)NC(=O)CNC(=O)[C@@H](NC(=O)[C@H](CCCCN)NC(=O)[C@@H](N)CCCCN)[C@@H](C)CC)[C@@H](C)CC)[C@@H](C)CC)[C@@H](C)CC)C(N)=O` [1,2-Hex, K K I G A I K K W G A J K K I G A I-NH2] (H-KKIGAIKKWGAIKKIGAI-NH2; N-terminus assumed), the “MIC Staph. aureus” value in assay [1] (ATCC 29213) was above 256 µg/mL. Moreover, the “MIC E. coli” value in assay [2] (ATCC 25922) was 128 µg/mL (≈ 66.6 µM). For the same compound, in assay [3] (ATCC 27853), the “MIC Pseud. aerug” value is 128 µg/mL (≈ 66.6 µM).
Consider `CC(C)C[C@H](NC(=O)CNC(=O)[C@H](C)NC(=O)[C@H](CCCCN)NC(=O)[C@H](CC(C)C)NC(=O)[C@H](CCCCN)NC(=O)[C@H](C)NC(=O)[C@H](CC(C)C)NC(=O)CNC(=O)[C@H](C)NC(=O)[C@H](CCCCN)NC(=O)[C@H](Cc1c[nH]c2ccccc12)NC(=O)[C@H](CCCCN)NC(=O)[C@H](C)NC(=O)[C@H](CC(C)C)NC(=O)CNC(=O)[C@H](C)NC(=O)[C@H](CCCCN)NC(=O)[C@H](CC(C)C)NC(=O)[C@@H](N)CCCCN)C(=O)N[C@@H](C)C(N)=O` [1,3-Hept, KLKAGLAKWKAGLAKLKAGLA-NH2] (H-KLKAGLAKWKAGLAKLKAGLA-NH2; N-terminus assumed), for which the “MIC Staph. aureus” value in assay [1] (ATCC 29213) was determined as 256 µg/mL (≈ 120 µM). In addition, the “MIC E. coli” value in assay [2] (ATCC 25922) turned out to be 32 µg/mL (≈ 15 µM). For the same compound, the “MIC Pseud. aerug” value in assay [3] (ATCC 27853) is above 256 µg/mL. The “antimicrobial activity (in words)” value in assay [4] was “slightly active”.
Take `CC[C@H](C)[C@H](NC(=O)[C@H](C)NC(=O)[C@H](CCCCN)NC(=O)CNC(=O)[C@@H](NC(=O)[C@H](CCCCN)NC(=O)[C@@H](NC(=O)[C@H](C)NC(=O)[C@H](CCCCN)NC(=O)CNC(=O)[C@H](Cc1c[nH]c2ccccc12)NC(=O)[C@H](CCCCN)NC(=O)[C@@H](NC(=O)[C@H](C)NC(=O)[C@H](CCCCN)NC(=O)CNC(=O)[C@@H](NC(=O)[C@@H](N)CCCCN)[C@@H](C)CC)[C@@H](C)CC)[C@@H](C)CC)[C@@H](C)CC)C(N)=O` [1,4-Hex, K I G K A I K W G K A I K I G K A I-NH2] (H-KIGKAIKWGKAIKIGKAI-NH2; N-terminus assumed): the “MIC Staph. aureus” value in assay [1] (ATCC 29213) is above 256 µg/mL. The “MIC E. coli” value in assay [2] (ATCC 25922) was 32 µg/mL (≈ 16.6 µM). The “MIC Pseud. aerug” value in assay [3] (ATCC 27853) worked out at 64 µg/mL (≈ 33.3 µM).
`CC[C@H](C)[C@H](NC(=O)[C@H](CCCCN)NC(=O)[C@H](C)NC(=O)CNC(=O)[C@@H](NC(=O)[C@H](CCCCN)NC(=O)[C@@H](NC(=O)[C@H](CCCCN)NC(=O)[C@H](C)NC(=O)CNC(=O)[C@H](Cc1c[nH]c2ccccc12)NC(=O)[C@H](CCCCN)NC(=O)[C@@H](NC(=O)[C@H](CCCCN)NC(=O)[C@H](C)NC(=O)CNC(=O)[C@@H](NC(=O)[C@@H](N)CCCCN)[C@@H](C)CC)[C@@H](C)CC)[C@@H](C)CC)[C@@H](C)CC)C(N)=O` [1,5-Hex, K I G A K I K W G A K I K I G A K I-NH2] (H-KIGAKIKWGAKIKIGAKI-NH2; N-terminus assumed): the “antimicrobial activity (in words)” value in assay [4] is “appreciable antimicrobial activity”.
With `CC[C@H](C)[C@H](NC(=O)[C@H](C)NC(=O)CNC(=O)[C@@H](NC(=O)[C@H](CCCCN)NC(=O)[C@H](CCCCN)NC(=O)[C@@H](NC(=O)[C@H](C)NC(=O)CNC(=O)[C@H](Cc1c[nH]c2ccccc12)NC(=O)[C@H](CCCCN)NC(=O)[C@H](CCCCN)NC(=O)[C@@H](NC(=O)[C@H](C)NC(=O)CNC(=O)[C@@H](NC(=O)[C@@H](N)CCCCN)[C@@H](C)CC)[C@@H](C)CC)[C@@H](C)CC)[C@@H](C)CC)C(=O)N[C@@H](CCCCN)C(N)=O` [1,6-Hex, K I G A I K K W G A I K K I G A I K-NH2] (H-KIGAIKKWGAIKKIGAIK-NH2; N-terminus assumed), the “MIC Staph. aureus” value in assay [1] (ATCC 29213) was above 256 µg/mL. The “MIC E. coli” value in assay [2] (ATCC 25922) is above 256 µg/mL. The “MIC Pseud. aerug” value in assay [3] (ATCC 27853) is above 256 µg/mL.
With `CCCCCCCC(=O)N[C@@H](CCCCN)C(=O)N[C@H](C(=O)NCC(=O)N[C@@H](C)C(=O)N[C@@H](CCCCN)C(=O)N[C@H](C(=O)N[C@@H](CCCCN)C(=O)N[C@@H](Cc1c[nH]c2ccccc12)C(=O)NCC(=O)N[C@@H](C)C(=O)N[C@@H](CCCCN)C(=O)N[C@H](C(=O)N[C@@H](CCCCN)C(=O)N[C@H](C(=O)NCC(=O)N[C@@H](C)C(=O)N[C@@H](CCCCN)C(=O)N[C@H](C(N)=O)[C@@H](C)CC)[C@@H](C)CC)[C@@H](C)CC)[C@@H](C)CC)[C@@H](C)CC` [Oct-KIGAKI-18A, Oct- K I G A K I K W G A K I K I G A K I-NH2] (Octanoyl-KIGAKIKWGAKIKIGAKI-NH2), the “MIC Staph. aureus” value in assay [1] (Table 103) came out at 4 µg/mL (≈ 1.95 µM). Besides, the “MIC E. coli” value in assay [2] (Table 103) worked out at 8 µg/mL (≈ 3.9 µM). Moreover, the “MIC Pseud. aerug” value in assay [3] (Table 103) amounted to 8 µg/mL (≈ 3.9 µM).
Turning to `CCCCCCCC(=O)N[C@@H](CCCCN)C(=O)N[C@H](C(=O)NCC(=O)N[C@@H](C)C(=O)N[C@@H](CCCCN)C(=O)N[C@H](C(=O)N[C@@H](CCCCN)C(=O)N[C@H](C(=O)NCC(=O)N[C@@H](C)C(=O)N[C@@H](CCCCN)C(=O)N[C@H](C(=O)N[C@@H](CCCCN)C(=O)N[C@@H](Cc1c[nH]c2ccccc12)C(=O)NCC(=O)N[C@@H](C)C(=O)N[C@@H](CCCCN)C(=O)N[C@H](C(N)=O)[C@@H](C)CC)[C@@H](C)CC)[C@@H](C)CC)[C@@H](C)CC)[C@@H](C)CC` [Oct-KIGAKI-18B, Oct- K I G A K I K I G A K I K W G A K I-NH2] (Octanoyl-KIGAKIKIGAKIKWGAKI-NH2), the “MIC Staph. aureus” value in assay [1] (Table 103) turned out to be 8 µg/mL (≈ 3.9 µM). The “MIC E. coli” value in assay [2] (Table 103) worked out at 8 µg/mL (≈ 3.9 µM). The “MIC Pseud. aerug” value in assay [3] (Table 103) worked out at 8 µg/mL (≈ 3.9 µM).
For the compound “K I G A K S K H G A K I K I G A K I-NH2 (KIGAKSKHGAKIKIGAKI-NH2) [SH-KIGAKI]”, the “calcein leakage from LUV (in words)” value in assay [5] (POPC (PC) LUV) is given as “low lytic activity”; in assay [5] (POPC/POPG LUV, all ratios (1:1 to 4:1)), “no ability to induce leakage”; in assay [5] (any LUVs containing PE/PG), “no ability to induce leakage”.

(Values after US20040249122A1, “Cationic, amphipathic beta-sheet peptides and uses thereof” (priority 2003, published 2004).)
